Results from patent US5364848A, “Substituted cephalosporin sulfones as anti-inflammatory and antidegenerative agents” (Merck & Co., Inc., priority 1992, dated 1994).

Tested on: PG synthesis
Test: not given
Conditions: background statement; cited from earlier work

Compound | inhibition of PG synthesis
COc1ccc2c(c1)c(CC(=O)O)c(C)n2C(=O)c1ccc(Cl)cc1 [indomethacin] | inhibited
CCCCC1C(=O)N(c2ccccc2)N(c2ccccc2)C1=O [phenylbutazone] | inhibited

Biological target: T1, Human Polymorphonuclear Leukocyte Elastase (Homo sapiens, UniProt P08246)
T1 sequence (P08246 30-247 limits assumed): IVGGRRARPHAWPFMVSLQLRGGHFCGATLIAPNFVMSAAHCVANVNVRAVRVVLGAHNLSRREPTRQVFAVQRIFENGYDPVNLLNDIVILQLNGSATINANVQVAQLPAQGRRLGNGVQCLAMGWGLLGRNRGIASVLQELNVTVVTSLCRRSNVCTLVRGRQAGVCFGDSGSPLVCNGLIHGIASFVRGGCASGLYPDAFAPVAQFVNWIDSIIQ
Test: biochemical
Conditions: not given
Method: Protocol--Enzyme Assays for the Inhibition of Human Polymorphonuclear Leukocyte Elastase Via Hydrolysis of N-t-Boc-alanyl-alanyl-prolylalanine-p-nitroanilide Reagents:
0.05M TES (N-tris[hydroxymethyl]methyl-2-amino-ethanesulfonic acid) Buffer, pH 7.5.
0.2 mMN-t-Boc-alanyl -alanyl -prolyl-alanine-p-nitroanilide (Boc-AAPAN).
To prepare substrate, the solid (m.w. 550) was first dissolved in 10.0 ml DMSO. Buffer at pH 7.5 was then added to a final volume of 100 ml.
Crude extract of human polymorphonuclear leukocytes (PMN) containing elastase activity.
Inhibitors (cephalosporin sulfone esters) to be tested dissolved in DMSO just before use.
To 1.0 ml of 0.2 mM Boc-AAPAN in a cuvette, 0.01-0.1 ml of DMSO with or without inhibitor was added. After mixing, a measurement was taken at 410 mμ to detect any spontaneous hydrolysis due to presence of test compound. 0.05 Milliliters of PMN extract was then added and the ΔOD/min at 410 mμ was measured and recorded. Beckman model 35 spectrophotometer was used.
The elastase activity in the crude PMN extract may vary from one preparation to another. A control of each new batch is run, and the volume added in the assay procedure is adjusted according to activity.

Compound | IC50
COC1C(=O)N2C(C(=O)OC(C)(C)C)=C(CSc3nccn3C)CS(=O)(=O)C12 (stereo not drawn) [R1=OCH3, M=drawing 41, B=OtBu, Q=H] | 2330 nM
COC1C(=O)N2C(C(=O)OC(C)(C)C)=C(CSc3nnc(C)s3)CS(=O)(=O)C12 (stereo not drawn) [R1=OCH3, M=drawing 42, B=OtBu, Q=H] | 2230 nM

Same assay, conditions: Table II; 50% inhibition of the enzyme activity 2 minutes after zero time; crude PMN extract, pH 7.5, 0.2 mM Boc-AAPAN; read-out: ED50 (the source's name) (converted)

Compound | IC50
COC1C(=O)N2C(C(=O)OC(C)(C)C)=C(COC(=O)CN(C)C(=O)OC(C)(C)C)CS(=O)(=O)C12 (stereo not drawn) [R1=OCH3, M=drawing 38, B=OtBu, Q=H] | 198 nM
COC1C(=O)N2C(C(=O)OC(C)(C)C)=C(CSc3nc[nH]n3)CS(=O)(=O)C12 (stereo not drawn) [R1=OCH3, M=drawing 39, B=OtBu, Q=H] | 2160 nM
CCOC(=S)SCC1=C(C(=O)OC(C)(C)C)N2C(=O)C(OC)C2S(=O)(=O)C1 (stereo not drawn) [R1=OCH3, M=drawing 40, B=OtBu, Q=H] | 1600 nM
COC1C(=O)N2C(C(=O)OC(C)(C)C)=C(CSc3nc4ccccc4s3)CS(=O)(=O)C12 (stereo not drawn) [R1=OCH3, M=drawing 43, B=OtBu, Q=H] | 6220 nM
COC1C(=O)N2C(C(=O)OC(C)(C)C)=C(CSc3cn[nH]n3)CS(=O)(=O)C12 (stereo not drawn) [R1=OCH3, M=drawing 44, B=OtBu, Q=H] | 1440 nM
COC1C(=O)N2C(C(=O)OC(C)(C)C)=C(CSc3nnnn3C)CS(=O)(=O)C12 (stereo not drawn) [R1=OCH3, M=drawing 45, B=OtBu, Q=H] | 1390 nM
CC(=O)OCC1=C(C(=O)OCc2ccccc2)N2C(=O)C(OC(C)=O)C2S(=O)(=O)C1 (stereo not drawn) [R1=OCOCH3, M=CH2OCOCH3, B=OCH2.phi., Q=H] | 914 nM
CC(=O)OCC1=C(C(=O)OC(C)(C)C)N2C(=O)C(OC=O)C2S(=O)(=O)C1 (stereo not drawn) [R1=drawing 36, M=CH2OCOCH3, B=OtBu, Q=H] | 385 nM
COC(=O)C1=C(COC(C)=O)CS(=O)(=O)C2C(OC=O)C(=O)N12 (stereo not drawn) [R1=drawing 37, M=CH2OCOCH3, B=OCH3, Q=H] | 288 nM
CO[C@H]1C(=O)N2C(C(=O)OC(C)(C)C)=C(COC(C)=O)C(CSc3ccccc3)S(=O)(=O)[C@H]12 (stereo partly drawn) [t-Butyl 3-acetyloxymethyl-7α-methoxy-4-phenylthiomethyl-8-oxo-5-thia-1-azabicyclo[4.2.0]oct-2-ene-2-carboxylate-5,5-dioxide] | 60.3 nM

Tested on: elastase both from the pancreas and the PMN
Test: not given
Conditions: background statement; cited from earlier work

Compound | inhibitory spectrum
α1 -Antitrypsin: a glycoprotein contained in human serum that has a wide inhibitory spectrum | wide inhibitory spectrum covering, among other enzymes, elastase both from the pancreas and the PMN
